Here are results for 8 molecules from patent US20240270762A1, “PENICILLIN-BINDING PROTEIN INHIBITORS” (priority 2021, published 2024).

Values after ≈ are worked out from the molar mass of the structure shown.

Assay [1] relates to P. aeruginosa CDC-0095. Briefly: microbe, parasite or virus in culture. It is filed as cell-based. Particulars: Pseudomonas aeruginosa, CDC0095, read-out: Minimum inhibitory concentration, P. aeruginosa CDC-0095.
The test system of assay [2] is N. gonorrhoeae WHO K. Briefly: Liquid broth MIC in Fastidious broth. Particulars: Neisseria gonorrhoeae, read-out: Minimum Inhibitory Concentration (MIC), N. gonorrhoeae WHO K.
In assay [3] the test system is A. baumannii CDC-0083. Description: microbe, parasite or virus in culture. It is filed as cell-based. Particulars: Acinetobacter baumannii, CDC0083, read-out: MIC, A. baumannii CDC-0083.
For assay [4], the system named is N. gonorrhoeae WHO X. Description: Liquid broth MIC in Fastidious broth. The settings on record: Neisseria gonorrhoeae, read-out: Minimum Inhibitory Concentration (MIC), N. gonorrhoeae WHO X.
Assay [5] relates to A. baumannii ATCC 17978. Description: microbe, parasite or virus in culture. It is filed as cell-based. Particulars: Acinetobacter baumannii, ATCC17978, read-out: MIC, A. baumannii ATCC 17978.
Assay [6] concerns A. baumannii 1258916. Description: microbe, parasite or virus in culture. It is filed as cell-based, Acinetobacter baumannii. Particulars: Acinetobacter baumannii, 1258916, read-out: MIC, A. baumannii 1258916.
The test system of assay [7] is A. baumannii CDC-0033. Briefly: microbe, parasite or virus in culture. The format is cell-based. The settings on record: Acinetobacter baumannii, CDC0033, read-out: MIC, A. baumannii CDC-0033.
For assay [8], the system named is N. gonorrhoeae WHO M. Description: Liquid broth MIC in Fastidious broth. The settings on record: Neisseria gonorrhoeae, read-out: Minimum Inhibitory Concentration (MIC), N. gonorrhoeae WHO M.
The subject of assay [9] is P. aeruginosa CDC-0090. Briefly: microbe, parasite or virus in culture. Particulars: Pseudomonas aeruginosa, CDC0090, read-out: Minimum inhibitory concentration, P. aeruginosa CDC-0090. The format is cell-based.
The target in assay [10] is T1, PBP3 from Acinetobacter baumannii (ATCC 19606) (Acinetobacter baumannii, UniProt A0ABX6CK25).
T1 sequence (A0ABX6CK25 64-610): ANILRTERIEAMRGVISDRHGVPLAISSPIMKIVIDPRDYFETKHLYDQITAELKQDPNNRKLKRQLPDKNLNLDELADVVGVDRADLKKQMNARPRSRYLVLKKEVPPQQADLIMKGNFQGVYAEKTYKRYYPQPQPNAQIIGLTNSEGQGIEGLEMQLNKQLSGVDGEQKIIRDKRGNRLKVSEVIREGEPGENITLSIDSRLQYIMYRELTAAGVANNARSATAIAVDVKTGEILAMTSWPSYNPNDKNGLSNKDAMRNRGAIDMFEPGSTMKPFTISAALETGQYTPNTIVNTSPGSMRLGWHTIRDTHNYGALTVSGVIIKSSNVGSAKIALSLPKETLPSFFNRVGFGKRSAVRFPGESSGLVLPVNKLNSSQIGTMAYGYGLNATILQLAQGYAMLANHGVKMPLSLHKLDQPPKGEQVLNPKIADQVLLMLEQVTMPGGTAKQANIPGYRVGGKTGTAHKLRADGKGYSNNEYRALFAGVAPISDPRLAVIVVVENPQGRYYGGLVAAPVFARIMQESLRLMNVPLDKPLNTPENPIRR
Briefly: Bocillin-FL fluorescence polarization competition binding, A. baumannii PBP3. The settings on record: fluorescence polarization competition binding assay using Bocillin-FL; read-out: A. baumannii PBP3 Potency. The procedure, abridged:
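Purified PBP was preincubated with inhibitor (E. coli PBP3 1.5 μM, 30 min; P. aeruginosa PBP3 0.75 μM, A. baumannii PBP3 0.2 μM and PBP1a 1 μM, 15 min), then Bocillin-FL (0.1 μM; 0.05 μM for PBP1a) added and FP read up to 60 min. EC50 = 50% loss of bound probe.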
(In fluorescence polarisation assays a small probe gives low polarisation when free and higher when bound to something large.)

Assay [11] relates to P. aeruginosa CDC-0110. Description: microbe, parasite or virus in culture. It is filed as cell-based. The settings on record: Pseudomonas aeruginosa, CDC0110, read-out: Minimum inhibitory concentration, P. aeruginosa CDC-0110.

Take `O=C(CN1CCN(C(=O)NC(C(=O)N[C@H]2Cc3ccc(F)c(C(=O)O)c3OB2O)c2cc(F)c(O)c(O)c2Cl)C(=O)C1=O)Nc1ccc(O)cc1` (stereo partly drawn) [Example 230, (3R)-3-(2-(2-chloro-5-fluoro-3,4-dihydroxyphenyl)-2-(4-(2-((4-hydroxyphenyl)amino)-2-oxoethyl)-2,3-dioxopiperazine-1-carboxamido)acetamido)-7-fluoro-2-hydroxy-3,4-dihydro-2H-benzo[e][1,2]oxaborinine-8-carboxylic acid]: the MIC was below 1 µg/mL in assay [1]; 16 to 32 µg/mL (≈ 21.9 to 43.7 µM) in assay [2]; below 1 µg/mL in assay [3]; above 64 µg/mL in [4]; below 1 µg/mL in assay [5]; 2 to 4 µg/mL (≈ 2.73 to 5.47 µM) in assay [6]. The MIC in assay [7] was 2 to 4 µg/mL (≈ 2.73 to 5.47 µM); in [8], 4 to 8 µg/mL (≈ 5.47 to 10.9 µM); in assay [9], 2 to 4 µg/mL (≈ 2.73 to 5.47 µM); in assay [11] it was below 1 µg/mL. Moreover, the IC50 in assay [10] was below 10 µM.

As for `O=C(CN1CCN(C(=O)NC(C(=O)N[C@H]2Cc3ccc(F)c(C(=O)O)c3OB2O)c2cc(F)c(O)c(O)c2Cl)C(=O)C1=O)Nc1cccc(O)c1` (stereo partly drawn) [Example 231, (3R)-3-(2-(2-chloro-5-fluoro-3,4-dihydroxyphenyl)-2-(4-(2-((3-hydroxyphenyl)amino)-2-oxoethyl)-2,3-dioxopiperazine-1-carboxamido)acetamido)-7-fluoro-2-hydroxy-3,4-dihydro-2H-benzo[e][1,2]oxaborinine-8-carboxylic acid], the MIC in assay [1] is 2 to 4 µg/mL (≈ 2.73 to 5.47 µM); in [2], 16 to 32 µg/mL (≈ 21.9 to 43.7 µM); in [3] it was above 128 µg/mL; in assay [4] it was above 64 µg/mL; in [5] it was below 1 µg/mL; in assay [6], 2 to 4 µg/mL (≈ 2.73 to 5.47 µM). For the same molecule, the MIC in [7] was 8 to 16 µg/mL (≈ 10.9 to 21.9 µM); in assay [8], 4 to 8 µg/mL (≈ 5.47 to 10.9 µM); in assay [9] it was 2 to 4 µg/mL (≈ 2.73 to 5.47 µM); in [11], below 1 µg/mL. In [10], the IC50 was below 10 µM.

In the case of `O=C(CN1CCN(C(=O)NC(C(=O)N[C@H]2Cc3ccc(F)c(C(=O)O)c3OB2O)c2cc(F)c(O)c(O)c2Cl)C(=O)C1=O)Nc1ccccc1` (stereo partly drawn) [Example 232, (3R)-3-(2-(2-chloro-5-fluoro-3,4-dihydroxyphenyl)-2-(2,3-dioxo-4-(2-oxo-2-(phenylamino)ethyl)piperazine-1-carboxamido)acetamido)-7-fluoro-2-hydroxy-3,4-dihydro-2H-benzo[e][1,2]oxaborinine-8-carboxylic acid], the MIC in assay [1] was 2 to 4 µg/mL (≈ 2.79 to 5.59 µM); in assay [2] it was above 64 µg/mL; in assay [3], above 128 µg/mL; in assay [4], above 64 µg/mL; in [5] it was 2 to 4 µg/mL (≈ 2.79 to 5.59 µM); in assay [6], 2 to 4 µg/mL (≈ 2.79 to 5.59 µM). Also, the MIC in [7] is 32 to 64 µg/mL (≈ 44.7 to 89.4 µM); in [8], 4 to 8 µg/mL (≈ 5.59 to 11.2 µM); in assay [9], 2 to 4 µg/mL (≈ 2.79 to 5.59 µM); in [11] it was 2 to 4 µg/mL (≈ 2.79 to 5.59 µM). Further, the IC50 in assay [10] was below 10 µM.

Regarding `O=C(CN1CCN(C(=O)NC(C(=O)N[C@H]2Cc3ccc(F)c(C(=O)O)c3OB2O)c2cc(F)c(O)c(O)c2Cl)C(=O)C1=O)Nc1ccncc1` (stereo partly drawn) [Example 233, (3R)-3-(2-(2-chloro-5-fluoro-3,4-dihydroxyphenyl)-2-(2,3-dioxo-4-(2-oxo-2-(pyridin-4-ylamino)ethyl)piperazine-1-carboxamido)acetamido)-7-fluoro-2-hydroxy-3,4-dihydro-2H-benzo[e][1,2]oxaborinine-8-carboxylic acid], the MIC was 2 to 4 µg/mL (≈ 2.79 to 5.58 µM) in assay [1]; 16 to 32 µg/mL (≈ 22.3 to 44.6 µM) in assay [2]; below 1 µg/mL in [3]; above 64 µg/mL in assay [4]; below 1 µg/mL in [5]; below 1 µg/mL in assay [6]. Further, the MIC in assay [7] was 8 to 16 µg/mL (≈ 11.2 to 22.3 µM); in assay [8], 4 to 8 µg/mL (≈ 5.58 to 11.2 µM); in [9], below 1 µg/mL; in assay [11], below 1 µg/mL. For the same molecule, the IC50 in assay [10] was below 10 µM.

Take `O=C(CN1CCN(C(=O)NC(C(=O)N[C@H]2Cc3ccc(F)c(C(=O)O)c3OB2O)c2cc(F)c(O)c(O)c2Cl)C(=O)C1=O)Nc1cccnc1` (stereo partly drawn) [Example 234, (3R)-3-(2-(2-chloro-5-fluoro-3,4-dihydroxyphenyl)-2-(2,3-dioxo-4-(2-oxo-2-(pyridin-3-ylamino)ethyl)piperazine-1-carboxamido)acetamido)-7-fluoro-2-hydroxy-3,4-dihydro-2H-benzo[e][1,2]oxaborinine-8-carboxylic acid]: the MIC was 32 to 64 µg/mL (≈ 44.6 to 89.3 µM) in assay [1]; 16 to 32 µg/mL (≈ 22.3 to 44.6 µM) in assay [2]; below 1 µg/mL in assay [3]; above 64 µg/mL in assay [4]; below 1 µg/mL in assay [5]; below 1 µg/mL in assay [6]. Moreover, the MIC was 8 to 16 µg/mL (≈ 11.2 to 22.3 µM) in assay [7], 4 to 8 µg/mL (≈ 5.58 to 11.2 µM) in [8], 2 to 4 µg/mL (≈ 2.79 to 5.58 µM) in [9] and below 1 µg/mL in assay [11]. Moreover, the IC50 in [10] is below 10 µM.

With `O=C(CN1CCN(C(=O)NC(C(=O)N[C@H]2Cc3ccc(F)c(C(=O)O)c3OB2O)c2cc(F)c(O)c(O)c2Cl)C(=O)C1=O)Nc1nccs1` (stereo partly drawn) [Example 235, (3R)-3-(2-(2-chloro-5-fluoro-3,4-dihydroxyphenyl)-2-(2,3-dioxo-4-(2-oxo-2-(thiazol-2-ylamino)ethyl)piperazine-1-carboxamido)acetamido)-7-fluoro-2-hydroxy-3,4-dihydro-2H-benzo[e][1,2]oxaborinine-8-carboxylic acid], the MIC in assay [1] was 2 to 4 µg/mL (≈ 2.77 to 5.53 µM); in [2], 16 to 32 µg/mL (≈ 22.1 to 44.3 µM); in assay [3], below 1 µg/mL; in [4], above 64 µg/mL; in [5], below 1 µg/mL; in assay [6], 2 to 4 µg/mL (≈ 2.77 to 5.53 µM). In addition, the MIC in assay [7] was 8 to 16 µg/mL (≈ 11.1 to 22.1 µM); in assay [8], 4 to 8 µg/mL (≈ 5.53 to 11.1 µM); in [9], 2 to 4 µg/mL (≈ 2.77 to 5.53 µM); in assay [11] it was below 1 µg/mL. Further, the IC50 in assay [10] was below 10 µM.

Regarding `O=C(CN1CCN(C(=O)NC(C(=O)N[C@H]2Cc3ccc(F)c(C(=O)O)c3OB2O)c2cc(F)c(O)c(O)c2Cl)C(=O)C1=O)NCc1cccc(O)c1` (stereo partly drawn) [Example 237, (3R)-3-(2-(2-chloro-5-fluoro-3,4-dihydroxyphenyl)-2-(4-(2-((3-hydroxybenzyl)amino)-2-oxoethyl)-2,3-dioxopiperazine-1-carboxamido)acetamido)-7-fluoro-2-hydroxy-3,4-dihydro-2H-benzo[e][1,2]oxaborinine-8-carboxylic acid], the MIC in assay [1] is 2 to 4 µg/mL (≈ 2.68 to 5.36 µM); in assay [2], above 64 µg/mL; in [3], above 128 µg/mL; in assay [4] it was above 64 µg/mL; in assay [5], below 1 µg/mL; in assay [6] it was 2 to 4 µg/mL (≈ 2.68 to 5.36 µM). Also, the MIC in assay [7] was 8 to 16 µg/mL (≈ 10.7 to 21.5 µM); in assay [8], 4 to 8 µg/mL (≈ 5.36 to 10.7 µM); in [9], 2 to 4 µg/mL (≈ 2.68 to 5.36 µM); in assay [11] it was below 1 µg/mL. The IC50 in assay [10] is below 10 µM.

For the molecule `O=C(CN1CCN(C(=O)NC(C(=O)N[C@H]2Cc3ccc(F)c(C(=O)O)c3OB2O)c2cc(F)c(O)c(O)c2Cl)C(=O)C1=O)NCc1ccccc1` (stereo partly shown) [Example 238], the MIC in assay [1] is 2 to 4 µg/mL (≈ 2.74 to 5.48 µM); in [2] it was above 64 µg/mL; in [3], above 128 µg/mL; in assay [4], above 64 µg/mL; in [5], below 1 µg/mL; in [6], 2 to 4 µg/mL (≈ 2.74 to 5.48 µM). In addition, the MIC was 8 to 16 µg/mL (≈ 11 to 21.9 µM) in assay [7], 4 to 8 µg/mL (≈ 5.48 to 11 µM) in assay [8], 2 to 4 µg/mL (≈ 2.74 to 5.48 µM) in assay [9] and below 1 µg/mL in assay [11]. Besides, the IC50 in [10] was below 10 µM.
